ChEMBL document CHEMBL4602614, “Design, synthesis and cholinesterase inhibitory activity of novel spiropyrrolidine tethered imidazole heterocyclic hybrids” (Bioorg Med Chem Lett, 2020)

What was measured:
Acetylcholinesterase = Acetylcholinesterase (Homo sapiens, UniProt P22303); assay: Inhibition of AChE (unknown origin)
Cholinesterase = Cholinesterase (Homo sapiens, UniProt P06276); assay: Inhibition of BChE (unknown origin)
Chain of Cholinesterase (P06276 whole entry): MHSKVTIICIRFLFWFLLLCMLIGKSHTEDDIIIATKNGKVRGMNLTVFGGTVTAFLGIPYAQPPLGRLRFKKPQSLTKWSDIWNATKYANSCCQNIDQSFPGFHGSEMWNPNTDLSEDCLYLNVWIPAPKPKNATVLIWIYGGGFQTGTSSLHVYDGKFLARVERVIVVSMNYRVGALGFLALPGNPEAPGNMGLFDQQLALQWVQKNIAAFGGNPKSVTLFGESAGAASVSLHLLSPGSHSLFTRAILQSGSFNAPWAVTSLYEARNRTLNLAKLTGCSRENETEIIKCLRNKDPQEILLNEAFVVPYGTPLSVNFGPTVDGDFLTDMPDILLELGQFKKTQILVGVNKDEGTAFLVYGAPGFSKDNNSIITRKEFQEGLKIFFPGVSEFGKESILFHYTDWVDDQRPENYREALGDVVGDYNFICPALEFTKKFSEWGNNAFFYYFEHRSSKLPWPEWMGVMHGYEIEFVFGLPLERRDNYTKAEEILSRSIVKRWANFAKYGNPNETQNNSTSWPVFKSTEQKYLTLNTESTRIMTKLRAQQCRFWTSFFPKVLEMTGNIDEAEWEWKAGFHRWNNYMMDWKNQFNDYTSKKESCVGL

Chain of Acetylcholinesterase (P22303 whole entry): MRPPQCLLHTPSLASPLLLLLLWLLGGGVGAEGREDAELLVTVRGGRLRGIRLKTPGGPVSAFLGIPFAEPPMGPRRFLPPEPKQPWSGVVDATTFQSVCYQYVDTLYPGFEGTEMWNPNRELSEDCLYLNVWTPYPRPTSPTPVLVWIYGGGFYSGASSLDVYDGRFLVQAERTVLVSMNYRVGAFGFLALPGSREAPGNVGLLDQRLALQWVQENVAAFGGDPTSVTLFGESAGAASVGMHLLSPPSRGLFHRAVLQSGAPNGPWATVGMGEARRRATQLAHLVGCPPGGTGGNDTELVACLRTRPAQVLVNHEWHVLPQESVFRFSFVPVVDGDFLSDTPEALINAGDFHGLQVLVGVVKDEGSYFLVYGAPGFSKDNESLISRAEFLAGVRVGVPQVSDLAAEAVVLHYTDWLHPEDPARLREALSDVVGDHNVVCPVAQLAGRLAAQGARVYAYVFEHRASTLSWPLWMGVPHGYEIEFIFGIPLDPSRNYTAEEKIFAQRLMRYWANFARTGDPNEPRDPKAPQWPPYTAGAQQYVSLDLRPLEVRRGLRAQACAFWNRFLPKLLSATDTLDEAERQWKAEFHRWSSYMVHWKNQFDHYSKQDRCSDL

Row | Compound | IC50 (Acetylcholinesterase) | IC50 (Cholinesterase)
1 | COc1ccc(C2C([N+](=O)[O-])C(Cc3c[nH]cn3)NC23c2ccccc2-c2nc4ccccc4nc23)cc1 (configuration not stated) | 2.05 µM | 11.5 µM
2 | COc1ccccc1C1C([N+](=O)[O-])C(Cc2c[nH]cn2)NC12c1ccccc1-c1nc3ccccc3nc12 (configuration not stated) | 5.22 µM | 14.2 µM
3 | O=[N+]([O-])C1C(Cc2c[nH]cn2)NC2(c3ccccc3-c3nc4ccccc4nc32)C1c1ccccn1 (configuration not stated) | 17 µM | 24.3 µM
4 | Cc1cccc(C2C([N+](=O)[O-])C(Cc3c[nH]cn3)NC23c2ccccc2-c2nc4ccccc4nc23)c1 (configuration not stated) | 7.8 µM | 13.6 µM
5 | Cc1ccc(C2C([N+](=O)[O-])C(Cc3c[nH]cn3)NC23c2ccccc2-c2nc4ccccc4nc23)cc1 (configuration not stated) | 2.02 µM | 12.4 µM
6 | O=[N+]([O-])C1C(Cc2c[nH]cn2)NC2(c3ccccc3-c3nc4ccccc4nc32)C1c1ccccc1 (configuration not stated) | 11.8 µM | 15.6 µM
7 | O=[N+]([O-])C1C(Cc2c[nH]cn2)NC2(c3ccccc3-c3nc4ccccc4nc32)C1c1ccc(Br)cc1 (configuration not stated) | 16.2 µM | 26.6 µM
8 | COc1cccc(C2C([N+](=O)[O-])C(Cc3c[nH]cn3)NC23c2ccccc2-c2nc4ccccc4nc23)c1 (configuration not stated) | 9.2 µM | 14.7 µM
9 | O=[N+]([O-])C1C(Cc2c[nH]cn2)NC2(c3ccccc3-c3nc4ccccc4nc32)C1c1ccc(Cl)cc1 (configuration not stated) | 18.2 µM | 21.6 µM
10 | Cc1ccccc1C1C([N+](=O)[O-])C(Cc2c[nH]cn2)NC12c1ccccc1-c1nc3ccccc3nc12 (configuration not stated) | 10 µM | 13.8 µM
11 | O=[N+]([O-])C1C(Cc2c[nH]cn2)NC2(c3ccccc3-c3nc4ccccc4nc32)C1c1ccco1 (configuration not stated) | 14.2 µM | 22.3 µM
